Patent US12565458B2, “Granulated agricultural composition comprising macro- and micronutrients, and related methods” (YPF SOCIEDAD ANÓNIMA, priority 2021, dated 2026)

Test system: wheat
Experiment: Field experiment 2, Zn impregnation on urea, wheat 2018 (Example 5)
Format: in vivo, wheat (SY 120)
Set-up: WG (weight of grains): unit not given here

NC(N)=O [Urea 200]
Yield (wheat grain yield, Pergamino 2018): 5136.4 kg ha^−1
Dry M Z25 (initial dry matter) (wheat, Z25, Pergamino 2018): 2450.0
Coverage and Intercep. Z65 (wheat, Z65, Pergamino 2018): 91.7
NDVI GS 65 (Green seeker) (wheat, Z65, Pergamino 2018): 0.40
Plant height (wheat, Z65, Pergamino 2018): 75.0 cm
Spad Z65 (green intensity) (wheat, Z65, Pergamino 2018): 40.8 Spad units
Vigor Z65 (1-5) (wheat, Z65, index 1 minimum 5 maximum): 3.9
Plants m^−2 (number of emerged plants) (wheat, Zn impregnation on Urea, Pergamino 2018): 239.0 m^−2
NG m^−2 (number of grains) (wheat, harvest, Pergamino 2018): 16410.1 m^−2
WG (weight of grains) (wheat, harvest, Pergamino 2018): 31.3
